Numbers after ± are expanded uncertainties.
What was measured:
[1] = Crystal; DTA
[2] = Molar enthalpy of transition or fusion; settings: Crystal; DSC

Normal melting temperature [1]: 184.67 ± 0.53 °C | Molar enthalpy of transition or fusion [2]: 60 ± 1.5 kJ/mol
SMILES: O=P(Oc1ccccc1)(Oc1ccccc1)N1CCN(P(=O)(Oc2ccccc2)Oc2ccccc2)CC1 [tetraphenyl piperazine-1,4-diylbis(phosphonate)]

Source: the NIST ThermoML archive (doi:10.1016/j.jct.2014.06.021)
